Like-named read-outs stand apart in the source and are kept apart here.
Legend:
monkey NPR1 = monkey NPR1 (Macaca fascicularis, UniProt A0A7N9DBT9); test: Cellular cGMP production assay, monkey NPR1 expressing CHO-K1 cells (CisBio HTRF); format: cell-based; details: for Monkey NPR1 Amax (% of ANP): maximum cGMP production as percentage of the maximum cGMP produced with ANP
Procedure, shortened: (§1)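 Read-out was HTRF (excitation 317 nm, emission 665 nm), with cGMP quantified as Delta F against a calibrator standard curve. Beforehand, cells were exposed for 30 min at 37 °C to compound (30 μM top, twelve 3-fold steps) in IBMX-containing PBS/BSA buffer, then lysed.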

human NPR1 = target: T1, human NPR1 (Homo sapiens, UniProt P16066); test: Cellular cGMP production assay, human NPR1 expressing CHO-K1 cells (CisBio HTRF); format: cell-based; details: for AC50: cGMP production, 30 min at 37° C., 12-point dose-response from 30 μM; for Human NPR1 Amax (% of ANP): maximum cGMP production as percentage of the maximum cGMP produced with ANP
T1 construct: host or cells: CHO-K1
T1 sequence (P16066 33-1061): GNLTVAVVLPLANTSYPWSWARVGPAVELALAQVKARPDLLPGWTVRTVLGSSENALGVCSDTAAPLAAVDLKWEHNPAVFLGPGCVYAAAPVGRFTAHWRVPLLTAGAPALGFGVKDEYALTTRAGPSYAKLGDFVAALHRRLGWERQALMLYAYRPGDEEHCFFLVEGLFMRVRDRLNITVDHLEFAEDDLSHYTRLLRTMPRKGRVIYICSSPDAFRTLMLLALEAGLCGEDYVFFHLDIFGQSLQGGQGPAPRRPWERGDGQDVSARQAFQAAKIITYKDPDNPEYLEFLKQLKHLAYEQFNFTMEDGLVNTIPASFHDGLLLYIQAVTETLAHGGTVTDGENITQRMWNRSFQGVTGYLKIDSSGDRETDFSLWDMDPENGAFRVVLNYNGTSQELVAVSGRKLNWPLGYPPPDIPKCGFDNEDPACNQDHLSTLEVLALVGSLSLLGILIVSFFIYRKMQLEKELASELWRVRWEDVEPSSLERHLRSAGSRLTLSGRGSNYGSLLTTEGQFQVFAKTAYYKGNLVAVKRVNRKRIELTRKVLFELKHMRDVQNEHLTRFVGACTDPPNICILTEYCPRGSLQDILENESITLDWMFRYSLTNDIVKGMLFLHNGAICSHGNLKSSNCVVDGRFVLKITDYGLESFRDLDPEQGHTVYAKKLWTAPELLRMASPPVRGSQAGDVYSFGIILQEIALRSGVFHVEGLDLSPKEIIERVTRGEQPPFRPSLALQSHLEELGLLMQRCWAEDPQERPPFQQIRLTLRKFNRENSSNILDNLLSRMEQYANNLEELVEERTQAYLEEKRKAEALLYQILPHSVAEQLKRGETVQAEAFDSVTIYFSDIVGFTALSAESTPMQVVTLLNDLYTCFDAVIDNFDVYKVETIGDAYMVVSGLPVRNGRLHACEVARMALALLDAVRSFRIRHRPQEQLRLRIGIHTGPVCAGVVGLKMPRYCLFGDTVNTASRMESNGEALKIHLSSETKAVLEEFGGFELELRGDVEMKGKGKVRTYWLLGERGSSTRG
Procedure, shortened: as §1

[1] = cGMP production, monkey NPR1 CHO-K1 cells, 30 min at 37° C., 12-point dose-response from 30 μM, read-out: Monkey NPR1 AC50

Chain of monkey NPR1 (A0A7N9DBT9 entry or part of it): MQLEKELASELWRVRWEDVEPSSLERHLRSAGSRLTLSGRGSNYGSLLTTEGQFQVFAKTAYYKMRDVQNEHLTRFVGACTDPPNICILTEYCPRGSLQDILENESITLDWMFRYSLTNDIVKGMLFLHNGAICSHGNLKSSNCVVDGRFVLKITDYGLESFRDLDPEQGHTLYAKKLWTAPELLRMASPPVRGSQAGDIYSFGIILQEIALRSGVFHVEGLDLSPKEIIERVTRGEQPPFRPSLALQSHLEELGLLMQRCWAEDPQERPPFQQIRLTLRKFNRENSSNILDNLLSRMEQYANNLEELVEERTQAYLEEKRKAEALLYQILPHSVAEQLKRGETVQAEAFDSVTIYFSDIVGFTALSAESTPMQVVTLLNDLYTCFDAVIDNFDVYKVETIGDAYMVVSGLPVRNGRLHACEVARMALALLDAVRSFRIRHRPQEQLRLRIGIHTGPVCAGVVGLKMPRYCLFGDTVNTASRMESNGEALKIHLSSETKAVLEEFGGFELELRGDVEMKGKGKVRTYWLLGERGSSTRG

SMILES	AC50 (monkey NPR1) [nM]	Monkey NPR1 Amax (% of ANP) (monkey NPR1; monkey NPR1 CHO-K1 cells)	AC50 (human NPR1) [nM]	Human NPR1 Amax (% of ANP) (human NPR1)	AC50 (monkey NPR1; [1]) [nM]
CC[C@H]([C@H]1CC[C@H](C(=O)O)CC1)N(C)c1nc2c(c(N[C@@H](CN3C4CCCC3CC4)c3cnn(C)c3)n1)C[C@H](c1ccccc1)CC2 [Compound 103, (1R,4r)-4-((1R)-1-(((6R)-4-(((1R)-2-(8-azabicyclo[3.2.1]octan-8-yl)-1-(1-methyl-1H-pyrazol-4-yl)ethyl)amino)-6-phenyl-5,6,7,8-tetrahydroquinazolin-2-yl)(methyl)amino)propyl)cyclohexane-1-carboxylic acid]	350	106.030 % of ANP	393	101.239 % of ANP	–
CC[C@@H](Nc1nc2c(c(N[C@@H](CN3CCCCC3)c3ccccc3)n1)C[C@@H](c1cccc(F)c1)CC2)[C@H]1CC[C@H](C(=O)O)CC1 [Compound 37, (1R,4r)-4-((R)-1-(((S)-6-(3-fluorophenyl)-4-(((R)-1-phenyl-2-(piperidin-1-yl)ethyl)amino)-5,6,7,8-tetrahydroquinazolin-2-yl)amino)propyl)cyclohexane-1-carboxylic acid]	–	107.224 % of ANP	150	105.989 % of ANP	158
CC[C@@H](Nc1nc2c(c(N[C@@H](CN3CCCCCC3)c3cnn(CC)c3)n1)C[C@H](c1ccccc1)CC2)[C@H]1CC[C@H](C(=O)O)CC1 [Compound 94, (1R,4r)-4-((R)-1-(((R)-4-(((R)-2-(azepan-1-yl)-1-(1-ethyl-1H-pyrazol-4-yl)ethyl)amino)-6-phenyl-5,6,7,8-tetrahydroquinazolin-2-yl)amino)propyl)cyclohexane-1-carboxylic acid]	–	105.567 % of ANP	326	101.620 % of ANP	226
CC[C@@H](N(C)c1nc2c(c(N[C@@H](CN3CCC[C@H](C)C3)c3cnn(C)c3C)n1)C[C@H](c1cccc(F)c1)CC2)C12CC(C(=O)O)(C1)C2 [Compound 46]	–	101.294 % of ANP	179	93.728 % of ANP	146
CC[C@H]([C@H]1CC[C@H](C(=O)O)CC1)N(C)c1nc2c(c(N[C@@H](CN3CC4CCC3C4)c3cnn(C)c3)n1)C[C@](C)(c1ccccc1)CC2 (stereo partly drawn) [Compound 68, (1R,4r)-4-((1R)-1-(((6R)-4-(((1R)-2-(2-azabicyclo[2.2.1]heptan-2-yl)-1-(1-methyl-1H-pyrazol-4-yl)ethyl)amino)-6-methyl-6-phenyl-5,6,7,8-tetrahydroquinazolin-2-yl)(methyl)amino)propyl)cyclohexane-1-carboxylic acid]	–	101.066 % of ANP	234	96.721 % of ANP	95
CC[C@@H](Nc1nc2c(c(N[C@@H](CN3CCCC(C)(C)C3)c3cnn(C)c3)n1)C[C@H](c1ccccc1)CC2)[C@H]1CC[C@H](C(=O)O)CC1 [Compound 95, (1R,4r)-4-((R)-1-(((R)-4-(((R)-2-(3,3-dimethylpiperidin-1-yl)-1-(1-methyl-1H-pyrazol-4-yl)ethyl)amino)-6-phenyl-5,6,7,8-tetrahydroquinazolin-2-yl)amino)propyl)cyclohexane-1-carboxylic acid]	–	94.323 % of ANP	334	97.121 % of ANP	173

Reference: patent US12129246B1, “Hydroquinazoline derivatives for the treatment of a disease or disorder” (Novartis AG, priority 2023, dated 2024)
